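Where inhibition never reached the appropriate level, the endpoint shown equals the highest concentration tested. Otherwise, values were interpolated linearly from a five-concentration, 48-hour dose response in 96-well plates. GI50 marks 50% less growth.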 Calls of active or inactive are those of the source. Cut-off read from the data, not from the text of the source: active = GI50 up to about 1.1 µM and inactive = higher. Some results are limits rather than exact numbers.

Test systems include A498; HOP-92; EKVX; SR; NCI-H23; OVCAR-3; SNB-75; SF-295; HCC 2998; HCT-116; RXF 393; M14; UACC-62; HOP-62; COLO 205; HCT-15; OVCAR-8; NCI/ADR-RES; Malme-3M; SNB-19.
Common to all, as to assay: inhibition of tumour cell growth, NCI panel, 48 h

Turning to `N#Cc1c(N)nc2c3c1NC(=O)C(C(N)=O)C3c1ccccc1O2` (centres undefined), the GI50 in the assay with A498 is > 100 µM (inactive); with HOP-92, 12.9 µM (inactive); in the assay with EKVX, 37.3 µM (inactive); in the assay on SR, 62.5 µM (inactive); with NCI-H23, 71.8 µM (inactive); in the assay on OVCAR-3, > 100 µM (inactive). The GI50 is 54.7 µM (inactive) in the assay on SNB-75; 32.1 µM (inactive) in the assay on SF-295; > 100 µM (inactive) in the assay with HCC 2998; > 100 µM (inactive) in the assay with HCT-116; 75.2 µM (inactive) in the assay on RXF 393; > 100 µM (inactive) in the assay on M14. Further, the GI50 with UACC-62 is 27.5 µM (inactive); in the assay with HOP-62 it was 60.8 µM (inactive); with COLO 205, > 100 µM (inactive); in the assay on HCT-15, greater than 100 µM; in the assay on OVCAR-8, 42.5 µM (inactive); in the assay on NCI/ADR-RES it was > 100 µM (inactive). Further, the GI50 in the assay on Malme-3M was > 100 µM (inactive); in the assay on SNB-19, 47.9 µM (inactive).

With `CCOC(=O)c1ccc(NC(=O)Oc2ccc3c(C)cc(=O)oc3c2)cc1`, the GI50 in the assay with A498 is > 100 µM (inactive); with HOP-92 it was 23.7 µM (inactive); in the assay on EKVX it was 42.9 µM (inactive); in the assay with SR it was 24.2 µM (inactive); in the assay with NCI-H23, 32.4 µM (inactive); in the assay with OVCAR-3 it was 32.7 µM (inactive). Further, the GI50 in the assay on SNB-75 was 32 µM (inactive); in the assay with SF-295, 30.1 µM (inactive); with HCC 2998, 23.7 µM (inactive); in the assay with HCT-116, 28.2 µM (inactive); in the assay on RXF 393, 58.6 µM (inactive); in the assay with M14, 28.5 µM (inactive). Besides, the GI50 in the assay with UACC-62 is 31.8 µM (inactive); in the assay with HOP-62 it was 31.6 µM (inactive); with COLO 205, 34.2 µM (inactive); with HCT-15, 33.7 µM; in the assay on OVCAR-8 it was 35.5 µM (inactive); in the assay with NCI/ADR-RES it was 37 µM (inactive). The GI50 with Malme-3M was 42.6 µM (inactive); in the assay with SNB-19 it was 29.7 µM (inactive).

For the compound `COC(=O)c1ccc(C)cc1CC1Cc2ccc(C)cc2C1=O` (centres undefined), the GI50 in the assay on A498 was 1.53 µM (inactive); with HOP-92, 23 µM (inactive); in the assay on EKVX, 8.04 µM (inactive); in the assay on SR, 3.05 µM (inactive); in the assay with NCI-H23 it was 15.7 µM (inactive); in the assay on OVCAR-3, 6.17 µM (inactive). For the same compound, the GI50 in the assay with SNB-75 is 5.69 µM (inactive); in the assay with SF-295 it was 10.7 µM (inactive); with HCC 2998, 10.1 µM (inactive); in the assay on HCT-116, 5.15 µM (inactive); with RXF 393, 10.1 µM (inactive); with M14, 5.7 µM (inactive). Further, the GI50 in the assay on UACC-62 was 9.53 µM (inactive); with HOP-62, 22 µM (inactive); in the assay on COLO 205, 4.54 µM (inactive); in the assay with HCT-15 it was 3.24 µM; with OVCAR-8, 12.2 µM (inactive); in the assay on NCI/ADR-RES it was 2.59 µM (inactive). The GI50 was 5.24 µM (inactive) in the assay on Malme-3M and 6.24 µM (inactive) in the assay on SNB-19.

On to `COC(=O)C1(CCC(C)=O)CCCCCC1=O` (centres undefined), for which the GI50 in the assay on A498, in the assay on HOP-92, in the assay on EKVX, in the assay on SR, with NCI-H23 and in the assay with OVCAR-3 was > 100 µM (inactive) in each case. The GI50 in the assay on SNB-75, with SF-295, with HCC 2998, with HCT-116, in the assay with RXF 393 and with M14 was > 100 µM (inactive) in each case. The GI50 is > 100 µM (inactive) in the assay on UACC-62; > 100 µM (inactive) in the assay on HOP-62; > 100 µM (inactive) with COLO 205; greater than 100 µM in the assay on HCT-15; > 100 µM (inactive) with NCI/ADR-RES; > 100 µM (inactive) in the assay on Malme-3M. Also, the GI50 in the assay with SNB-19 was > 100 µM (inactive).

As to `O=C(Nc1ccccc1)c1cc2ccccc2c(/N=N\c2cccc([N+](=O)[O-])c2)c1O`, the GI50 in the assay with A498 is > 100 µM (inactive); with HOP-92, > 100 µM (inactive); with EKVX it was 39 µM (inactive); in the assay with SR it was 38.2 µM (inactive); in the assay on NCI-H23, > 100 µM (inactive); in the assay on OVCAR-3, > 100 µM (inactive). The GI50 with SNB-75 was 33.5 µM (inactive); in the assay on SF-295, > 100 µM (inactive); with HCC 2998, > 100 µM (inactive); in the assay on HCT-116 it was > 100 µM (inactive); in the assay with RXF 393, 47.8 µM (inactive); in the assay with M14 it was > 100 µM (inactive). Besides, the GI50 in the assay with UACC-62 was > 100 µM (inactive); in the assay on HOP-62, 41.1 µM (inactive); with COLO 205 it was > 100 µM (inactive); in the assay on HCT-15, greater than 100 µM; with OVCAR-8 it was 78.2 µM (inactive); in the assay with NCI/ADR-RES, > 100 µM (inactive). The figures for the GI50 in the assay on Malme-3M and in the assay with SNB-19 were 7.26 µM (inactive) and 31 µM (inactive), respectively.

Regarding `CCCCn1c2c(n(CCCC)c1=S)-c1c(n(CCCC)c(=S)n1CCCC)S[Se][Se]S2`, the GI50 in the assay on A498 is 38.7 µM (inactive); with HOP-92, 0.942 µM (active); with EKVX, 6.01 µM (inactive); in the assay with SR, 5.19 µM (inactive); in the assay on NCI-H23, 13.2 µM (inactive); in the assay on OVCAR-3, 0.931 µM (active). Moreover, the GI50 in the assay on SNB-75 is 5.13 µM (inactive); in the assay with SF-295, 3.51 µM (inactive); in the assay with HCC 2998 it was 23.6 µM (inactive); in the assay with HCT-116 it was 4.27 µM (inactive); in the assay on RXF 393 it was 3.96 µM (inactive); with M14 it was 8.59 µM (inactive). The GI50 is 5.58 µM (inactive) in the assay with UACC-62; 8.83 µM (inactive) with HOP-62; 1.62 µM (inactive) in the assay on COLO 205; 2.94 µM with HCT-15; 4.16 µM (inactive) in the assay on OVCAR-8; 21.1 µM (inactive) with NCI/ADR-RES. Besides, the GI50 was 0.625 µM (active) in the assay with Malme-3M and 5.42 µM (inactive) in the assay on SNB-19.

In the case of `Cc1ccc(S(=O)(=O)N2CCNCCN(S(=O)(=O)c3ccc(C)cc3)CCNCC2)cc1`, the GI50 with A498 is 23.2 µM (inactive); in the assay on HOP-92, 18.7 µM (inactive); with EKVX, 24 µM (inactive); in the assay with SR, 16.4 µM (inactive); in the assay on NCI-H23, 32.3 µM (inactive); in the assay with OVCAR-3, 14.2 µM (inactive). For the same compound, the GI50 was 20.2 µM (inactive) in the assay on SNB-75; 15.8 µM (inactive) with SF-295; 15.7 µM (inactive) with HCC 2998; 15 µM (inactive) in the assay with HCT-116; 2.65 µM (inactive) in the assay with RXF 393; 18.1 µM (inactive) in the assay on M14. For the same compound, the GI50 is 18.8 µM (inactive) in the assay with UACC-62; 16.6 µM (inactive) in the assay on HOP-62; 16.4 µM (inactive) in the assay on COLO 205; 32.9 µM in the assay on HCT-15; 19.2 µM (inactive) with OVCAR-8; 61.1 µM (inactive) in the assay on NCI/ADR-RES. Further, the results for the GI50 with Malme-3M and in the assay on SNB-19 were 17.5 µM (inactive) and 31 µM (inactive), respectively.

Take `O=c1cc(-c2ccccc2)oc2ccc(Cl)cc12` [6-CHLOROFLAVONE]: the GI50 in the assay on A498 was > 68.5 µM (inactive); in the assay on HOP-92, 22.8 µM (inactive); with EKVX, 17.4 µM (inactive); with SR it was 20.7 µM (inactive); with NCI-H23 it was 49.9 µM (inactive); in the assay with OVCAR-3, > 100 µM (inactive). Besides, the GI50 in the assay on SNB-75 was 26.8 µM (inactive); with SF-295 it was 44.2 µM (inactive); in the assay with HCC 2998, > 56.4 µM (inactive); in the assay with HCT-116 it was 46.6 µM (inactive); with RXF 393, 31.4 µM (inactive); in the assay with M14 it was 65.5 µM (inactive). The GI50 was > 67.1 µM (inactive) with UACC-62; 44.7 µM (inactive) in the assay with HOP-62; > 61.8 µM (inactive) with COLO 205; greater than 100 µM in the assay on HCT-15; > 86.5 µM (inactive) in the assay on OVCAR-8; 57.4 µM (inactive) in the assay on NCI/ADR-RES. The GI50 in the assay with Malme-3M is 56.9 µM (inactive); in the assay on SNB-19, 29.6 µM (inactive).

`O=C1Oc2ccccc2C(=O)/C1=C\Nc1nc(-c2ccc(O)c(O)c2)cs1`: the GI50 with A498 was 11.9 µM (inactive); with HOP-92 it was 13.5 µM (inactive); with EKVX it was 12.7 µM (inactive); with SR, 1.19 µM (inactive); in the assay on NCI-H23, 2.81 µM (inactive); in the assay with OVCAR-3, 2.29 µM (inactive). The GI50 in the assay with SNB-75 is 5.56 µM (inactive); with SF-295 it was 24.8 µM (inactive); in the assay on HCC 2998 it was 7.14 µM (inactive); in the assay on HCT-116, 2.7 µM (inactive); in the assay on RXF 393 it was 6.03 µM (inactive); in the assay on M14 it was 3.22 µM (inactive). Further, the GI50 was 4.83 µM (inactive) in the assay with UACC-62; 7.18 µM (inactive) with HOP-62; 2.3 µM (inactive) with COLO 205; 3.39 µM in the assay on HCT-15; 4.14 µM (inactive) in the assay with OVCAR-8; 4.46 µM (inactive) in the assay with NCI/ADR-RES. Also, the GI50 in the assay on Malme-3M was 2.99 µM (inactive); in the assay on SNB-19, 11.7 µM (inactive).

Consider `CCOC(=O)c1c(SC(=O)c2ccc(OC)cc2)n(-c2ccccc2)c(=S)n(-c2ccccc2)c1=O`, for which the GI50 with A498 was 27.3 µM (inactive); in the assay with HOP-92, > 100 µM (inactive); in the assay on EKVX it was > 100 µM (inactive); in the assay with SR, 29.9 µM (inactive); with NCI-H23, 61.9 µM (inactive); with OVCAR-3, 50 µM (inactive). Also, the GI50 in the assay on SNB-75 is > 100 µM (inactive); with SF-295, > 100 µM (inactive); in the assay with HCC 2998, > 100 µM (inactive); in the assay on HCT-116 it was 23.3 µM (inactive); in the assay on RXF 393, 49.3 µM (inactive); in the assay on M14, 29.7 µM (inactive). Further, the GI50 in the assay on UACC-62 is > 100 µM (inactive); with HOP-62 it was > 100 µM (inactive); in the assay with COLO 205 it was 89.1 µM (inactive); in the assay with HCT-15, 23.4 µM; in the assay with OVCAR-8 it was 21.8 µM (inactive); in the assay on NCI/ADR-RES it was > 100 µM (inactive). Moreover, the GI50 in the assay on Malme-3M and with SNB-19 was > 100 µM (inactive) throughout.

Source of the values: ChEMBL document CHEMBL1201862, “PubChem BioAssay data set” (2004).
